# Legend:
# Assay type in all cases: in vivo, rat
# [1] = test system: left ventricle of rats with pressure overload; assay: Cardiac gene expression (real-time RT-PCR) in rats with pressure overload
# Description: Experimental protocol in rats with pressure overload The rats with aortic banding randomly received subcutaneous injection of IFN-γ at 0.08 mg/k twice a day for one day before surgery and for 14 days after surgery. Sham animals were not treated. Thirteen days after treatment, a catheter was implanted into the right carotid artery under anesthesia as indicated above. One day after implantation, arterial pressure and HR were measured in conscious rats. The heart and other organs including the liver, kidney, and spleen were removed, weighed, and fixed in 10% buffered formalin for pathological studies. The left ventricle was quickly dissected and frozen with liquid nitrogen in some animals and stored at −80° C. for assessment of gene expression.
# (§1) RNA preparation Total RNA was isolated using RNeasy Maxi Columns (Qïägen) according to the manufacturer's instructions.
# (§2) RT-PCR Real-time RT-PCR (TaqMan) technology was used to compare the gene expression between the various treatment groups. An oligonucleotide probe containing a fluorescent reporter dye, […], at the 3′-end was designed to hybridize to the amplicon defined by two PCR primers. A 3′-blocking phosphate prevents extension of the probe. The reporter dye is released from the probe by the 5′ exonuclease activity of Taq polymerase during the extension phase of PCR reaction. […] The threshold cycle number (Ct), defined as the point where the reporter fluorescence reaches a value greater than 10 times the standard deviation of the baseline, is […] to the amount of amplicon produced from the sample. Since the fluorescence is detected during the exponential phase of the amplification, none of the reaction components are limiting. In each experiment, a control is analyzed that lacks the RNA template to monitor for contamination, and another control is included where the RT step is omitted to eliminate amplification of possible contaminating DNA as the source of the signal. Reactions are optimized to give the greatest fluorescence signal and smallest Ct by titration of magnesium and primer concentrations, and the product is run on an agarose gel to verify the presence of a single band at the predicted molecular weight. In addition, the sequence of the amplicon is screened against Genbank to eliminate the possibility of overlap with closely related genes.
# For each sample the mRNA for each target gene is determined using a standard curve as described below and then normalized to the amount of glyceraldehyde-3-phosphate-dehydrogenase (GAPDH) in the sample (see below for specifics of this calculation). The relative abundance of each target gene to GAPDH can then be compared among treatment groups.
# RT-PCR was performed on 1 ng of total RNA per reaction using the TaqMan Model 7700 Sequence Detector (ABI-Perkin Elmer) (Gibson et al., Genome Res. 6, 995–1001 [1996]). Amplification reaction conditions (for 50 μl) were 1×TaqMan Buffer A, 200 μM dATP, dCTP, dGTP, and 400 μM dUTP, 10% glycerol, 6.5 mM MgCl2, 50 U MuLV reverse transcriptase, 20 U RNase Inhibitor, 1.25 U AmpliTaq Gold, 100 nM forward and reverse primers, and 100 nM fluorogenic probe. RT-PCR reagents and glycerol were purchased from Perkin Elmer and Sigma, respectively. Reactions were performed in MicoAmp Optical Tubes and Caps (ABI-Perkin Elmer). TaqMan primers and probes were designed according to guidelines determined by Perkin Elmer and synthesized at Genentech, Inc., except for those for rodent GAPDH which were a generous gift from Perkin Elmer. Reverse transcription was performed at 48° C. for 30 minutes followed by heat activation of AmpliTaq Gold at 95° C. for 10 minutes. Thermal cycling was at 95° C. for 30 seconds and 60° for 1.5 minutes for 40 cycles.
# Quantitation of the TaqMan results was performed as described by Heid et al., Genome Res. 6:986–994 (1996), with modifications. Briefly, standard curves (1:5 serial dilution) for each target gene of interest were run in duplicate. […]
# [2] = test system: male Sprague/Dawley (SD) rats; assay: Hemodynamic assessment (MAP) in rats treated with fluprostenol and/or IFN-γ; conditions: conscious rats, 14 days of treatment (FIG. 5)
# Description: Hemodynamic assessment Thirteen days after treatment, rats were anesthetized with intraperitoreal injection of ketamine 80 mg/kg (Aveco Co., Inc., Fort Dodge, Iowa) and xylazine 10 mg/kg (Rugby Laboratories, Inc., Rockville Center, N.Y.). A catheter (PE-10 fused with PE 50) filled with heparin-saline solution (50 U/ml) was implanted into the abdominal aorta, via the right femoral artery, for measurement of mean arterial pressure (MAP) and heart rate (HR). The catheter was exteriorized and fixed at the back of the neck.
# One day after catheterization, the arterial catheter was connected to a Model CP 10 pressure transducer (Century Technology Company, Inglewood, Calif., USA) that was coupled to a Grass Model 7 polygraph (Grass Instruments, Quincy, Mass., USA). MAP and HR were measured simultaneously in conscious, unrestrained rats.
# [3] = test system: left ventricle of male Sprague/Dawley (SD) rats; assay: Cardiac gene expression (real-time RT-PCR) in rats treated with fluprostenol and/or IFN-γ; conditions: SKA, SRCA, COL I, ANF; FIG. 6
# From the text: FIGS. 6A–6D Bargraphs showing the effect of fluprostenol (FLUP) and IFN-γ on: A Skeletal actin (SKA); B Sarcoplasmic reticulum calcium ATPase (SRCA); C Collagen I (COL I); D Atrial natriuretic factor (ANF) expression. Expression levels are normalized to glyceraldehyde-3-phosphate dehydrogenase (GAPDH) message. VEH is vehicle. There were 7 animals per group and the data are presented as the mean±SEM. P<0.05 vs VEH group.
# as §1
# as §2, with “In addition, the sequence of the amplicon is screened against Genbank to eliminate the possibility of overlap with closely related genes.” left out
# Quantitation of the TaqMan results was performed as described by Heid et al., Genome Res. 6:986–994 (1996), with modifications. […]
# [4] = pressure overload, ratio to glyceraldehyde-3-phosphate dehydrogenase, mean ± SEM, n = 6
substance,measurement,setting,value
"IFN-γ: recombinant mouse IFN-γ (Genentech, Inc., South San Francisco, Calif., or Genzyme, Cambridge, Mass.)",Effects of aortic constriction on α-smooth muscle actin and collagen I gene expression,"[1]; banded rats, Table 3",inhibited
same,"ANF, atrial natriuretic factor expression",[1]; [4],3.61 ± 1.32
same,"COLI, collagen I expression",[1]; [4],0.77 ± 0.10
same,"COLIII, collagen III expression",[1]; [4],0.72 ± 0.09
same,"FIB, fibronectin expression",[1]; [4],0.97 ± 012
same,"SKA, α-skeletal actin expression",[1]; [4],2.47 ± 0.51
same,"SMA, α-smooth muscle actin expression",[1]; [4],0.77 ± 0.06
same,"βMHC, β-myosin heavy chain expression",[1]; [4],1.71 ± 0.14
same,Effect of IFN-γ on MAP of animals treated with fluprostenol,[2],did not affect the MAP
same,Mean arterial pressure (MAP) compared to vehicle,[2],had no effect on MAP
same,Inhibition of alterations in cardiac gene expression associated with fluprostenol induced hypertrophy,[3],inhibited all but the atrial natriuretic factor response

# Reference: patent US6989364B1, “Methods for treating cardiac hypertrophy by administering IFN-γ” (Genentech, Inc., priority 1998, dated 2006)
